In US9585877B2, “Methods of maintaining, treating or improving cognitive function” (Forum Pharmaceuticals, Inc., priority 2012, dated 2017):

Assays:
[1] = test system: subjects with mild-to-moderate Alzheimer's disease; assay: Clinical study, ADAS-Cog-11; type: in vivo, human
Description: (§1) A double-blind study of 3 doses of the Test Composition or placebo in subjects with mild-to-moderate Alzheimer's disease, with or without receiving a concomitant AChEI for 24 weeks (168 days) after a 7 day placebo run-in period.
Total number of subjects in the safety population was 409 subjects that were dosed once-daily with a dosing-capsule for a period of 168 days. The subjects dosed, and the particular dosing, included: 104 subjects dosed with Placebo capsule; and 305 subjects dosed with Test Compound (104 subjects with 0.3 mg capsules; 101 subjects with 1 mg capsules; and 100 subjects with 2 mg capsules).
The population included generally healthy male or female subjects, aged 50 to ≦85 years, with mild-to-moderate Alzheimer's disease, consistent with criteria defined by a Work Group of the National Institute of Neurological and Communicative Disorders and Stroke—Alzheimer's Disease and Related Disorders Association, of mild to moderate severity, with a Mini-Mental State Examination score (MMSE) 14 and ≦24, and a Clinical Dementia Rating Scale Sum of the Boxes (CDR-SB) score of 2. […] Subjects were required to be either receiving a stable dose of an AChEI (donepezil or rivastigmine) for at least 3 months before screening or not presently being treated with an AChEI or mementine for at least 30 days.
(§2) Subjects with mild to moderate Alzheimer's disease receiving stable treatment with an AChEI (donepezil or rivastigmine: ‘add-on’ subjects) or not receiving an AChEI (de novo subjects′) received 0.3, 1, or 2 mg doses of Test Composition or placebo for up to 24 weeks (168 days) of double-blind treatment, after a 7-day single-blind, placebo run-in period to assess study drug compliance. A follow-up telephone contact was conducted approximately 15 days after the last dose of study drug for questions regarding safety.
Cognitive Part of the Alzheimer's Disease Assessment Scale (ADAS-Cog-11)
The ADAS-cog-11 test employed herein is based on the procedure developed in the adapted version of the Administration and Scoring Manual for the Alzheimer's Disease Assessment Scale, 1994 Revised Edition, Richard C. Mohs, Ph.D., © 1994 by The Mount Sinai School of Medicine, manual modified by Donald Connor, Ph.D., and Kimberly Schafer, M.S. (3/98).
The ADAS-cog-11 test includes the following test items: (1) Word Recall, (2) Naming Objects/Fingers, (3) Commands, (4) Construction Praxis, (5) Ideational Praxis, (6) Orientation, (7) Word Recognition, (8) Remembering Test Instructions, (9) Spoken Language Ability, (10) Word Finding Difficulty, and (11) Comprehension.
The ADAS-cog-11 total score ranges from 0 to 70 (higher scores indicate more severe impairment). A decrease from baseline indicates improvement.

[2] = test system: subjects with mild-to-moderate Alzheimer's disease; assay: Clinical study, Cognition composite score; type: in vivo, human
Description: as §1, §2
These analyses were prespecified in the analytical plan (ITT population), and included the following: Cognition composite score (ADAS-cog Word Recall, Word Recognition, & Orientation, and COWAT and CFT), Memory composite score (ADAS-cog Word Recall, Word Recognition, and Orientation), and Executive Function composite score (COWAT and CFT).
Composite Scores—Three composite scores were calculated: (1) Composite Cognition Score (ADAS-cog Word Recall, Word Recognition, and Orientation, COWAT and CFT); (2) Memory Composite Score (ADAS-cog Word Recall, Word Recognition, and Orientation); and (3) Executive Function Composite Score (COWAT and CFT).
The composite score is only computed when all test scores are available.

SMILES: Cl.O.O=C(N[C@H]1CN2CCC1CC2)c1cc2cccc(Cl)c2s1 [Test Compound, (R)-7-chloro-N-(quinuclidin-3-yl)benzo[b]thiophene-2-carboxamide, hydrochloride, monohydrate]
- ADAS-Cog-11 (Baseline was assigned the value of zero @ Week 0) ([1]; 0.3 mg daily dose, Week 4): −0.3534
- ADAS-Cog-11 (Baseline was assigned the value of zero @ Week 0) ([1]; 0.3 mg daily dose, Week 12): −0.2129
- ADAS-Cog-11 (Baseline was assigned the value of zero @ Week 0) ([1]; 0.3 mg daily dose, Week 18): −0.067
- ADAS-Cog-11 (Baseline was assigned the value of zero @ Week 0) ([1]; 0.3 mg daily dose, Week 23): 0.2755
- ADAS-Cog-11 (Baseline was assigned the value of zero @ Week 0) ([1]; 1 mg daily dose, Week 4): −0.3412
- ADAS-Cog-11 (Baseline was assigned the value of zero @ Week 0) ([1]; 1 mg daily dose, Week 12): −0.8317
- ADAS-Cog-11 (Baseline was assigned the value of zero @ Week 0) ([1]; 1 mg daily dose, Week 18): 0.1063
- ADAS-Cog-11 (Baseline was assigned the value of zero @ Week 0) ([1]; 1 mg daily dose, Week 23): 0.3534
- ADAS-Cog-11 (Baseline was assigned the value of zero @ Week 0) ([1]; 2 mg daily dose, Week 4): −0.0031
- ADAS-Cog-11 (Baseline was assigned the value of zero @ Week 0) ([1]; 2 mg daily dose, Week 12): −0.998
- ADAS-Cog-11 (Baseline was assigned the value of zero @ Week 0) ([1]; 2 mg daily dose, Week 18): −1.1519
- ADAS-Cog-11 (Baseline was assigned the value of zero @ Week 0) ([1]; 2 mg daily dose, Week 23): −1.1188
- ADAS-Cog 11 Effect Size ([1]; 2 mg dose versus Placebo): 0.34
- Cognition Composite Score (Baseline was assigned the value of zero @ Week 0) ([2]; 0.3 mg daily dose, Week 4): 0.0036
- Cognition Composite Score (Baseline was assigned the value of zero @ Week 0) ([2]; 0.3 mg daily dose, Week 12): 0.0171
- Cognition Composite Score (Baseline was assigned the value of zero @ Week 0) ([2]; 0.3 mg daily dose, Week 18): −0.0245
- Cognition Composite Score (Baseline was assigned the value of zero @ Week 0) ([2]; 0.3 mg daily dose, Week 23): −0.0451
- Cognition Composite Score (Baseline was assigned the value of zero @ Week 0) ([2]; 1 mg daily dose, Week 4): 0.0042
- Cognition Composite Score (Baseline was assigned the value of zero @ Week 0) ([2]; 1 mg daily dose, Week 12): 0.0804
- Cognition Composite Score (Baseline was assigned the value of zero @ Week 0) ([2]; 1 mg daily dose, Week 18): −0.0102
- Cognition Composite Score (Baseline was assigned the value of zero @ Week 0) ([2]; 1 mg daily dose, Week 23): 0.0287
- Cognition Composite Score (Baseline was assigned the value of zero @ Week 0) ([2]; 2 mg daily dose, Week 4): −0.0084
- Cognition Composite Score (Baseline was assigned the value of zero @ Week 0) ([2]; 2 mg daily dose, Week 12): 0.0513
- Cognition Composite Score (Baseline was assigned the value of zero @ Week 0) ([2]; 2 mg daily dose, Week 18): 0.0915
- Cognition Composite Score (Baseline was assigned the value of zero @ Week 0) ([2]; 2 mg daily dose, Week 23): 0.1276
- Cognition composite score Effect Size ([2]; 2 mg versus placebo, over a 23 week period): 0.42
